Common to all, as to assay: inhibition of tumour cell growth, NCI panel, 48 h
The test system of test [1] is OVCAR-3 ovarian.
For test [2], the system named is SK-MEL-28 melanoma.
Test [3] relates to SF-295 CNS.
Test [4] relates to MDA-MB-231 breast.
For test [5], the system named is M14 melanoma.
In test [6] the test system is MCF7 breast.
For test [7], the system named is CAKI-1 renal.
Test [8] concerns SK-OV-3 ovarian.
For test [9], the system named is BT-549 breast.
For test [10], the system named is MDA-MB-435.

Structures are written as SMILES. Several values for one entry are separate records, joined by “and”; a condition that tells them apart may be missing. Identical values can stand only once.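 Each compound was tested at five concentrations against cells in 96-well plates for 48 hours. GI50 marks 50% less growth. Definition used: TGI = concentration required for complete inhibition of growth.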

Take `Cc1c(CN2CCC(Nc3ncnc4sc(CC(F)(F)F)cc34)CC2)ccc2c1cc(C#N)n2Cc1cn[nH]c1`: the GI50 in test [1] is 10.4 µM; in test [2], 2.2 µM and 5 µM; in test [3], 2.72 µM and 3.06 µM; in test [4], 2.32 µM and 4.04 µM; in test [5], 1.77 µM and 3.49 µM; in test [6] it was 1.59 µM and 2.01 µM. Further, the GI50 in test [7] is 4.43 µM; in test [8] it was 10 µM and > 24.1 µM; in test [9], 2.72 µM and 3.16 µM; in test [10] it was 1.99 µM and 3.78 µM. Besides, the TGI in [1] was 24 µM; in test [2], 6.28 µM; in test [3], 14.9 µM; in [4], 7.12 µM; in test [5] it was 3.69 µM; in [6], 3.75 µM and 8.6 µM. Besides, the TGI was 22.1 µM and > 40.3 µM in [7]; more than 47.4 µM in [8]; 17.5 µM and > 27.4 µM in test [9]; 6.15 µM in test [10].
As to `C=C1C(=O)O[C@@H]2C[C@@H](C)[C@@H]3[C@@H](OC4OC(COC(C)=O)C(O)C(O)C4O)CC(=O)[C@@]3(C)C[C@H]12` (some centres undefined), the TGI is 3.46 µM in test [1]; 6.27 µM in test [2]; 31.3 µM in test [3]; 8.92 µM in [4]; 2.85 µM in [5]; 2.19 µM in test [6]. Besides, the TGI in test [7] was found to be 1.01 µM; in test [8], 37.4 µM; in [9], 3.13 µM; in test [10], 6.03 µM.
For the compound `Cc1cc2c(C(N)=O)cccc2n1-c1nc2c(c(NCc3ccccc3)n1)CCCN2`, the GI50 is 0.206 µM in test [1]; 0.246 µM in [2]; 0.174 µM in test [3]; 0.186 µM in test [4]; 0.212 µM in test [5]; 0.0853 µM in test [6]. Further, the GI50 in [7] is 0.151 µM; in test [8], 0.32 µM; in test [9], 0.295 µM; in test [10] it was 0.164 µM. Also, the TGI in test [1] was 0.41 µM; in test [2] it was 0.593 µM; in test [3] it was 0.352 µM; in test [4], 0.394 µM; in test [5], 0.432 µM; in test [6], 0.747 µM. For the same compound, the TGI in [7] worked out at 0.333 µM; in test [8] it was 0.813 µM; in test [9], 0.695 µM; in test [10], 0.322 µM.
With `c1cncc(C(Nc2cccc3cccnc23)Nc2cccc3cccnc23)c1`, the TGI in test [1], in test [3], in test [4], in [5], in test [6] and in test [7] was more than 100 µM in each case. For the same compound, the TGI in [8], in test [9] and in test [10] was more than 100 µM each time.
For the compound `CCS(=O)(=O)c1ccc(OC)c(Nc2nccc(N(C)c3ccc4c(C)[nH]nc4c3)n2)c1`, the GI50 in test [1] was 7.42 µM; in test [2] it was 6.8 µM; in [3], 4.17 µM; in test [4] it was 3.66 µM; in test [5], 8.46 µM; in test [6], 9.16 µM. The GI50 in test [7] was 3.75 µM; in test [8] it was 5.03 µM; in [9], 5.76 µM; in test [10], 5.34 µM. The TGI in test [1] is more than 25 µM; in [2], more than 25 µM; in test [3], 10.4 µM; in test [4], 9.45 µM; in test [5], more than 21.8 µM; in test [6] it was more than 25 µM. The TGI in test [7] was 12.3 µM; in [8] it was 17.8 µM; in test [9], 14.5 µM; in test [10] it was 13.5 µM.
With `CCc1oc2ccccc2c1C(=O)c1cc(Br)c(O)c(Br)c1`, the TGI in test [1] is 43.2 µM; in [2], more than 100 µM; in test [3], 83.5 µM; in test [4] it was 44.7 µM; in test [5], 80.6 µM; in test [6], 51.5 µM. Further, the TGI was more than 100 µM in test [7], more than 100 µM in test [8], 71.4 µM in [9] and more than 100 µM in test [10].
Turning to `O=C(N/N=C/c1ccc(O)cc1O)c1ccc(Nc2ccnc(C(F)(F)F)c2)cc1`, the GI50 in test [1] is 0.35 µM; in test [2], 7.5 µM; in [4], 5.83 µM; in test [5], more than 100 µM; in [7], 0.0533 µM; in [8], 9.67 µM. Besides, the GI50 in test [9] is 22.2 µM; in test [10] it was more than 100 µM. Moreover, the TGI in test [1] was more than 100 µM; in test [2] it was more than 100 µM; in test [3], 23.3 µM; in [4], 57.2 µM; in test [5] it was more than 100 µM; in [6] it was more than 100 µM. The TGI in test [7] was 1.8 µM; in test [8] it was more than 80.1 µM; in [9] it was 79.9 µM; in [10], more than 100 µM.
With `Cc1nn2c(/C=C3/C(=O)Nc4ccccc43)c(-c3ccc(Cl)cc3)nc2s1`, the GI50 is 13.4 µM in test [1]; 10.3 µM in test [3]; 7.05 µM in test [4]; 11.5 µM in test [5]; 17.1 µM in test [6]; 13.3 µM in test [7]. For the same compound, the GI50 in test [9] is 10.7 µM; in [10] it was 39.5 µM. Also, the TGI in test [1] was more than 50 µM; in [3] it was 31.8 µM; in test [4], 21.3 µM; in test [5], 36.4 µM; in test [6], more than 50 µM; in test [7], more than 50 µM. Besides, the TGI in test [9] and in test [10] was more than 50 µM in each case.
On to `O=C(Nc1ccc2oc(=O)c(C(=O)O)cc2c1)Oc1ccccc1`, for which the TGI in test [1], in [2], in [3], in [4], in test [5] and in test [6] was more than 100 µM each time. In addition, the TGI in [7], in test [8], in test [9] and in test [10] was more than 100 µM in each case.
Regarding `Cn1c2ccccc2c2nnc(N/N=C/c3ccccn3)nc21`, the GI50 is 0.489 µM in test [1]; 0.494 µM in [2]; 0.37 µM in test [3]; 0.478 µM in [4]; 0.285 µM in test [5]; 0.285 µM in test [6]. Moreover, the GI50 in test [7] was 0.264 µM; in [8] it was 0.421 µM; in test [9] it was 0.452 µM; in test [10], 0.459 µM. Moreover, the TGI in [1] is more than 33 µM; in test [2] it was 26.6 µM; in test [3], more than 23.9 µM; in test [4], 38.1 µM; in test [6], 6.59 µM; in test [7] it was 1.19 µM. The results for the TGI in test [8], in [9] and in [10] were 21.9 µM, more than 38.9 µM and more than 54.6 µM, respectively.
Regarding `CNC1NC(=O)c2ccccc2N1Cc1ccc(F)cc1` (centres undefined), the TGI in [1], in test [2], in [3], in test [4], in test [5] and in test [6] was more than 100 µM throughout. Further, the TGI in [7], in test [8], in [9] and in [10] was more than 100 µM in each case.
`Cc1nn2c(/C=C3/C(=O)Nc4ccc(Cl)cc43)c(-c3ccccc3)nc2s1`: the GI50 was 2.79 µM in test [1]; 2.65 µM in [2]; 2.02 µM in test [3]; 2.29 µM in [4]; 6.33 µM in test [5]; 3.85 µM in test [6]. In addition, the GI50 was 1.92 µM in test [7], 2.25 µM in test [8], 3.11 µM in test [9] and 3.24 µM in test [10]. For the same compound, the TGI amounted to 13 µM in test [1]; 7.06 µM in [2]; 5.76 µM in test [3]; 8.41 µM in test [4]; 21.5 µM in [5]; 25 µM in test [6]. The TGI in test [7] came to 6.3 µM; in [8], 5.03 µM; in [9], 14.3 µM; in [10] it was 13.5 µM.
`O=C(Nc1ccc(Nc2ccncc2)cc1)c1ccc(Nc2ccnc3ccc([N+](=O)[O-])cc23)cc1`: the GI50 in test [1] was 6.35 µM; in [2], 63.8 µM; in [4] it was 78.2 µM; in test [5], more than 100 µM; in test [6], more than 100 µM; in test [7] it was more than 100 µM. Besides, the GI50 in [8], in [9] and in [10] was more than 100 µM throughout. The TGI in test [1], in [2], in test [4], in [5], in [6] and in test [7] was more than 100 µM throughout. Besides, the TGI in test [8], in test [9] and in test [10] was more than 100 µM in each case.
`COC[C@H]1OC(=O)c2coc3c2[C@@]1(C)C1=C(C3=O)[C@@H]2CCC(=O)[C@@]2(C)C[C@H]1OC(C)=O`: the TGI in [1] is more than 78.1 µM; in test [2], more than 100 µM; in test [3] it was 63.1 µM; in test [4], more than 100 µM; in [5], more than 59 µM; in test [6], more than 100 µM. Besides, the TGI in [8] was 23.5 µM; in test [9], 12.7 µM; in [10], more than 54.3 µM. Moreover, the GI50 in test [4] was 14.4 µM; in test [8] it was 2.22 µM; in test [9] it was 0.485 µM.
Regarding `COc1ccc(/C=C(\C#N)c2cc(OC)c3c(c2)OCO3)cc1`, the GI50 in test [1] is less than 0.01 µM; in [2], 0.0117 µM; in test [3], less than 0.01 µM; in [4] it was 0.0553 µM; in test [6], less than 0.0118 µM; in test [7] it was 0.465 µM. The GI50 in [8] is less than 0.0111 µM; in test [9], 0.0657 µM; in [10], less than 0.01 µM. Besides, the TGI in test [1] is less than 0.0136 µM; in test [2], 44.8 µM; in [3], 21 µM; in [4], 46.3 µM; in test [6], 19.8 µM; in test [7] it was 90.8 µM. Moreover, the TGI amounted to 0.458 µM in test [8] and 83.2 µM in [9].
Take `Cc1c(Cl)cccc1NC(=O)c1sc2nc3c(cc2c1N)CCCCCC3`: the GI50 in test [1] was 0.174 µM; in test [2] it was 4.59 µM; in test [3] it was 0.168 µM; in test [4] it was 0.356 µM; in test [5] it was 0.154 µM; in test [6], 0.149 µM. Also, the GI50 in test [8] is 0.279 µM; in test [9] it was 0.439 µM; in [10], 0.0761 µM. Moreover, the TGI is 1.21 µM in test [1]; more than 50 µM in test [2]; 13 µM in test [3]; more than 50 µM in [4]; more than 50 µM in [5]; more than 50 µM in test [6]. Besides, the TGI in test [8] was 26.5 µM; in test [9], 23.4 µM; in test [10], 0.251 µM.
Regarding `CCC(C)/C=C(C)/C=C/C(=O)c1c(O)c(-c2ccc(O)cc2)c[nH]c1=O` (centres undefined), the GI50 in test [1] is 2.79 µM; in test [3], 2.89 µM; in [4], 5.09 µM; in test [5], 6.58 µM; in [6], 2.9 µM; in [7] it was 2.74 µM. Further, the GI50 in test [8] was 6.32 µM; in test [9] it was 4.42 µM; in [10], 2.94 µM. Further, the TGI in test [1] stood at 9.33 µM; in test [3], 13.7 µM; in [4], 21.4 µM; in [5], 19.7 µM; in test [6], 15 µM; in test [7] it was 12.6 µM. The TGI in [8] is 29.4 µM; in test [9], 15.3 µM; in test [10], 11.2 µM.
Consider `Cn1c2ccc([N+](=O)[O-])cc2c(=O)c2c(O)cc(O)cc21`, for which the TGI is more than 100 µM in test [1]; more than 100 µM in test [2]; 33.8 µM in [3]; more than 100 µM in test [4]; more than 100 µM in test [5]; more than 100 µM in test [6]. The TGI in test [7], in test [9] and in [10] was more than 100 µM each time.

Source of the values: PubChem BioAssay (NCI).
